Assay results taken from patent publication US11214574B2, “Selective inhibitors of protein arginine methyltransferase 5 (PRMT5)” (Prelude Therapeutics, Incorporated, priority 2018, dated 2022).

Legend:
[1] = tested on: γ-globin expression in K562 cells; assay: γ-globin induction by quantitative PCR in K562 cells; assay type: cell-based; settings: 0.1 μM, 6 days, N=1
Description: Compounds were dissolved in DMSO to make 10 mM stock solutions, and further diluted to make 1 mM and 0.1 mM stocks.
K562 cells were purchased from ATCC and maintained in Iscove's DMEM (Corning Cellgro, Catalog #15-016-CVR) supplemented with 10% v/v FBS (GE Healthcare, Catalog #: SH30910.03) in a CO2 incubator (5% CO2) at 37° C. Cells were plated at a density of 5×10^5 cells/ml and treated with compound at final concentrations of 0.1 and 1 μM. Media and compound were renewed after 3 days in culture and cells were collected for RNA isolation after 6 days of treatment.
Assessment of γ-Globin Induction by Quantitative PCR
RNA was isolated using Quick-RNA Microprep kit (Zymo Research, Catalog #Z1050), cDNA was synthesized using qScript cDNA SuperMix (Quantabio, Catalog #95048). Quantitative PCR for γ-globin was performed using PerfeCTa SYBR Green FastMix (Quantabio, Catalog #95071) on Bio-Rad CFX Connect Real-Time PCR Detection System. Gene expression analysis was performed using CFX Manager software.
Assessment of γ-Globin Induction by Quantitative PCR in K562 Cells
Compounds were dissolved in DMSO to make 10 mM stock solutions, and further diluted to make 1 mM and 0.1 mM stocks. K562 cells were purchased from ATCC and maintained in Iscove's DMEM (Corning Cellgro, Catalog #15-016-CVR) supplemented with 10% v/v FBS (GE Healthcare, Catalog #: SH30910.03) in a CO2 incubator (5% CO2) at 37° C. […]

[2] = tested on: sDMA marks (SmD3me2s) in Granta-519 cells; assay: Western blotting for symmetric di-methyl arginine (sDMA) marks in Granta-519 cells; assay type: cell-based; settings: Homo sapiens, 72 h; Granta-519 cell line (values in square brackets), 3 days treatment
Description: Cell Treatment and Western Blotting for Detecting Symmetric Di-Methyl Arginine (sDMA) Marks
Compound titration and cell culture: Compounds were dissolved in DMSO to make 10 mM stock and 3-fold series dilutions were further conducted to make working stocks top at 1 mM. Granta-519 cells were maintained in PRMI 1640 (Corning Cellgro, Catalog #: 10-040-CV) supplemented with 10% v/v FBS (GE Healthcare, Catalog #: SH30910.03) and U-87 MG cells were maintained in DMEM (Corning Cellgro, Catalog #: 10-013-CV) with 10% FBS and 2 mM Glutamin (Corning Cellgro, Catalog #25005CV).
To determine enzyme inhibition IC50 values in Granta-519 and U-87 MG cells using Western Blot analysis. One day before experiment, Granta-519 cells were passaged to a density of 0.5×10^6 cells/ml. U-87 MG cells were trypsinized and 4×10^5 cells were seeded into 6-well plates and allow to grow overnight. […]
Cells were harvested 3 days later, resuspended in 15 uL PBS, lysed in 4% SDS, and homogenized by passing through homogenizer column (Omega Biotek, Catalog #: HCR003). Total protein concentrations were determined by BCA assay (ThermoFisher Scientific, Catalog #: 23225). […] SmD3me2s bands were quantified by ImageJ. […] IC50 values were calculated using Graphpad Prism ([Inhibitor] vs. normalized response—Variable slope).

PRMT5/MEP50 complex = PRMT5/MEP50 complex (Homo sapiens (Human), UniProt O14744); assay: PRMT5 biochemical assay (SPA, 3H-SAM); settings: PRMT5/MEP50 2.5 nM, 300 nM AcH4-23 substrate, 1 μM 3H-SAM
Description: Biochemical Assay Protocol
Compounds were solubilized and 3-fold diluted in 100% DMSO. […] Standard reactions were performed in a total volume of 30 μl in assay buffer, with 300 nM histone H4 based AcH4-23 (Anaspec: AS-65002) as substrate. To this was added the PRMT5/MEP50 complex diluted to provide a final assay concentration of 2.5 nM and the compounds were allowed to preincubate for 20 minutes at 37° C. The reaction was initiated by adding S-[3H-methyl]-adenosyl-L-methionine (PerkinElmer: NET155001MC) to final concentration of 1 μM. Following a 30 minutes incubation at 37° C., the reaction was stopped by adding 25 μL of 8M Guanidine HCl. Prepare streptavidin YSI SPA beads (Perkinelmer: RPNQ0012) at 0.3 mg/mL in assay buffer. To each reaction, add 150 μL of SPA beads suspension, and incubated while shaking at room temperature for 30 minutes. The plate was centrifuged at 100×g for 30 second before reading in a scintillation counter. IC50 values were determined by fitting the data to the standard 4 parameters with Hill Slope using GraphPad Prism software.

Sequence of PRMT5/MEP50 complex (O14744 whole entry): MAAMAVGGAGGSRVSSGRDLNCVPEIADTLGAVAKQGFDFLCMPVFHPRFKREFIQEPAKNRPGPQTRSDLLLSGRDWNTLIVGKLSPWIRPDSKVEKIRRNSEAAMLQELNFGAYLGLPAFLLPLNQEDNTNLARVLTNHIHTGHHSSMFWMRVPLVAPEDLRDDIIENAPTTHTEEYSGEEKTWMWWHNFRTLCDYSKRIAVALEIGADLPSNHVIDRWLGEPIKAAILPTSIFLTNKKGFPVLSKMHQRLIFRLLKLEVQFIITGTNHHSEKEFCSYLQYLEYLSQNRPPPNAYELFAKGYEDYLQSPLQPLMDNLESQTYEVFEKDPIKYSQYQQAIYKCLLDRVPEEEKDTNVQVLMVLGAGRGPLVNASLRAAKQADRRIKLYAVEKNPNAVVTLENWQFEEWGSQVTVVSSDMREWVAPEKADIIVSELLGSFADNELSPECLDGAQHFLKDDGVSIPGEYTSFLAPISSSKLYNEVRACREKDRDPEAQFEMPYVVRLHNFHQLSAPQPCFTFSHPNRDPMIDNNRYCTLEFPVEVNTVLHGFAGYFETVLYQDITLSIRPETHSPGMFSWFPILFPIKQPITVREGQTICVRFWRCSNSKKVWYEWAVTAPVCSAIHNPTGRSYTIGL
Sequence of PRMT5/MEP50 complex (Q9BQA1 whole entry partner): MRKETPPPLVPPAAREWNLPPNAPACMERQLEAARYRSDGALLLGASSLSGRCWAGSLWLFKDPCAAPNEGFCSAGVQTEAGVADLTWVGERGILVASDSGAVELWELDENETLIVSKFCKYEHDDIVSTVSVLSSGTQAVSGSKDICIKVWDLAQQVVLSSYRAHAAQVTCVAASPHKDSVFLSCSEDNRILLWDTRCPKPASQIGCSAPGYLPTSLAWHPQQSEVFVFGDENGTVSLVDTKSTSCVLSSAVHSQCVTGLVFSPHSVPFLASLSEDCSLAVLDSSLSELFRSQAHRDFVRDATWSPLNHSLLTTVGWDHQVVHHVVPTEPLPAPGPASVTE

SMILES | IC50 (PRMT5/MEP50 complex) [nM] | other results
Nc1ncnc2c1ccn2[C@@H]1O[C@H]([C@@H]2OCc3ccc(Cl)cc32)[C@@H](O)[C@H]1O [Example 5, (2R,3R,4S,5S)-2-(4-amino-7H-pyrrolo[2,3-d]pyrimidin-7-yl)-5-((R)-6-chloro-1,3-dihydroisobenzofuran-1-yl)tetrahydrofuran-3,4-diol] | – | increase in expression of γ-globin [1]: 3 fold
Nc1ncnc2c1ccn2[C@@H]1C[C@H]([C@H]2OCc3cc(Cl)ccc32)[C@@H](O)[C@H]1O [Example 2A, (1R,2S,3R,5S)-3-(4-amino-7H-pyrrolo[2,3-d]pyrimidin-7-yl)-5-((R)-5-chloro-1,3-dihydroisobenzofuran-1-yl)cyclopentane-1,2-diol] | – | IC50 [2]: 27 nM
Nc1ncnc2c1ccn2[C@@H]1O[C@H]([C@@H]2OCOCc3cc(Cl)ccc32)[C@@H](O)[C@H]1O [Example 81, (2R,3R,4S,5S)-2-(4-amino-7H-pyrrolo[2,3-d]pyrimidin-7-yl)-5-((R)-7-chloro-1,5-dihydrobenzo[e][1,3]dioxepin-1-yl)tetrahydrofuran-3,4-diol] | 41.5 | –
Cc1ncnc2c1ccn2[C@@H]1O[C@H]([C@@H]2OCCCc3cc(Cl)ccc32)[C@@H](O)[C@H]1O [Example 101, (2S,3S,4R,5R)-2-((R)-7-chloro-1,3,4,5-tetrahydrobenzo[c]oxepin-1-yl)-5-(4-methyl-7H-pyrrolo[2,3-d]pyrimidin-7-yl)tetrahydrofuran-3,4-diol] | 1580 | –
